# Laboratory results from ChEMBL document CHEMBL3044738, “Synthesis of analogues of antihyperglycemic lead karanjin” (2011).
# Columns and labels:
# Rattus norvegicus [1] = experiment: Antihyperglycemic activity in albino Rattus norvegicus Sprague-Dawley (rat) streptozotocin-induced diabetic model assessed as effect on AUC of blood glucose level at 100 mg/kg, po after 24 hr; type: functional
# Rattus norvegicus [2] = experiment: Antihyperglycemic activity in albino Rattus norvegicus Sprague-Dawley (rat) streptozotocin-induced diabetic model assessed as effect on AUC of blood glucose level at 100 mg/kg, po after 5 hr; type: functional
SMILES,Activity (Rattus norvegicus [1]),Activity (Rattus norvegicus [2])
C=CCOc1c(-c2ccccc2)oc2c(ccc3occc32)c1=O [3-O-ALLYLKARANJONOL],-16.6%,-33%
CN(C)C(=N)NC(=N)N [METFORMIN],25%,-26.7%
"COc1c(-c2ccccc2)oc2c3c(ccc2c1=O)OCC3 [2',3'-DIHYDROKARANJIN]",9.8%,6.2%
CC(=O)OC[C@H]1O[C@@H](Oc2c(-c3ccccc3)oc3c(ccc4occc43)c2=O)[C@H](OC(C)=O)[C@@H](OC(C)=O)[C@@H]1OC(C)=O [3-OTETRAACETYLGLUCOPYRANOSYLKARANJONOL],0.5%,9.7%
"O=c1c(O)c(-c2ccccc2)oc2c3c(ccc12)OCC3 [2',3'-DIHYDROKARANJONOL]",5.3%,7%
CCN(CC)CC(O)COc1c(-c2ccccc2)oc2c(ccc3occc32)c1=O (stereo not given) [3-(3-DIETHYLAMINO-2-HYDROXY-PROPYL)-KARANJONOL],-37%,-4.8%
O=C(COc1c(-c2ccccc2)oc2c(ccc3occc32)c1=O)c1ccccc1 [3-O-(2-OXO-2-PHENYL-ETHYL)-KARANJONOL],22.9%,15.4%
O=c1c(O)c(-c2ccccc2)oc2c1ccc1occc12 [KARANJONOL],-39%,-37.2%
COc1c(-c2ccccc2)oc2c(ccc3occc32)c1=O [KARANJIN],-42.6%,-30.8%
CC(C)Oc1c(-c2ccccc2)oc2c(ccc3occc32)c1=O [3-O-ISOPROPYLKARANJONOL],-15.4%,-26.9%
